Literature values, collected in patent US20220235022A1 (priority 2019, published 2022).

What was measured:
[1] = compared with Δ^9-THC; reported
[2] = conjugate acid of the base, approximate values

SMILES	less potent in terms of psychoactivity [1]	pKa (conjugate acid in DMSO) [2]
CCCCCc1cc(O)c2c(c1)OC(C)(C)[C@@H]1CC=C(C)C[C@@H]21 [Δ^8-THC, Δ^8-tetrahydrocannabinol]	approximately 50%	
Cc1cccc(C)n1 [2,6-dimethylpyridine]		4.46
